Experimental data published in the OligoGym collection.
Where “and” joins values, the source holds several entries; their conditions need not be identical. Identical values can stand only once. HELM strings list units from the 5' end as sugar, base in round brackets, then linkage (d deoxyribose, r ribose, m 2'-O-methyl, p phosphodiester). Methylation of C is not given here. [moe] = 2'-O-(2-methoxyethyl) (MOE); [cEt] = constrained ethyl (cEt); [sp] = phosphorothioate linkage

Target: HBV
Conditions: ASO

| Substance | target mRNA inhibition (HepG2, 0.07 µM) | also measured |
| --- | --- | --- |
| RNA1{[moe](A)[sp].[moe](A)[sp].[moe](G)[sp].d(T)[sp].d(C)[sp].d(C)[sp].d(A)[sp].d(C)[sp].d(C)[sp].d(A)[sp].d(C)[sp].d(G)[sp].d(A)[sp].[cEt](G)[sp].[cEt](T)[sp].[cEt](C)}$$$$V2.0 | 19% and 25% |  |
| RNA1{[moe](A)[sp].[moe](A)[sp].[moe](T)[sp].[moe](T)[sp].[moe](T)[sp].[moe](A)[sp].d(T)[sp].d(G)[sp].d(C)[sp].d(C)[sp].d(T)[sp].d(A)[sp].d(C)[sp].d(A)[sp].d(G)[sp].[moe](C)[sp].[moe](C)}$$$$V2.0 | 53% and 48% |  |
| RNA1{[moe](A)[sp].[moe](A)[sp].[moe](T)[sp].[moe](T)[sp].[moe](T)[sp].d(A)[sp].d(T)[sp].d(G)[sp].d(C)[sp].d(C)[sp].d(T)[sp].d(A)[sp].d(C)[sp].d(A)[sp].[moe](G)[sp].[moe](C)[sp].[moe](C)}$$$$V2.0 | 63% and 50% |  |
| RNA1{[moe](A)[sp].[moe](A)[sp].d(C)[sp].d(C)[sp].d(A)[sp].d(C)[sp].d(T)[sp].d(G)[sp].d(A)[sp].d(A)[sp].d(C)[sp].[moe](A)[sp].[moe](A)[sp].[moe](A)[sp].[moe](T)[sp].[moe](G)}$$$$V2.0 | 15% and 0% |  |
| RNA1{[moe](A)[sp].[moe](A)[sp].d(C)[sp].d(T)[sp].d(G)[sp].d(G)[sp].d(A)[sp].d(G)[sp].d(C)[sp].d(C)[sp].d(A)[sp].[moe](C)[sp].[moe](C)[sp].[moe](A)[sp].[moe](G)[sp].[moe](C)}$$$$V2.0 | 48% and 43% |  |
| RNA1{[moe](A)[sp].[moe](A)[sp].d(G)[sp].d(C)[sp].d(G)[sp].d(A)[sp].d(A)[sp].d(G)[sp].d(T)[sp].d(G)[sp].d(C)[sp].[moe](A)[sp].[moe](C)[sp].[moe](A)[sp].[moe](C)[sp].[moe](G)}$$$$V2.0 | 70% and 68% |  |
| RNA1{[moe](A)[sp].[moe](C)[sp].[moe](C)[sp].[moe](A)[sp].[moe](C)[sp].[moe](T)[sp].d(G)[sp].d(A)[sp].d(A)[sp].d(C)[sp].d(A)[sp].d(A)[sp].d(A)[sp].d(T)[sp].d(G)[sp].[moe](G)[sp].[moe](C)}$$$$V2.0 | 59% and 42% |  |
| RNA1{[moe](A)[sp].[moe](C)[sp].[moe](C)[sp].[moe](A)[sp].d(A)[sp].d(T)[sp].d(T)[sp].d(T)[sp].d(A)[sp].d(T)[sp].d(G)[sp].d(C)[sp].d(C)[sp].[moe](T)[sp].[moe](A)[sp].[moe](C)[sp].[moe](A)}$$$$V2.0 | 39% and 38% |  |
| RNA1{[moe](A)[sp].[moe](C)[sp].[moe](C)[sp].d(A)[sp].d(A)[sp].d(T)[sp].d(T)[sp].d(T)[sp].d(A)[sp].d(T)[sp].d(G)[sp].d(C)[sp].[moe](C)[sp].[moe](T)[sp].[moe](A)[sp].[moe](C)[sp].[moe](A)}$$$$V2.0 | 31% and 33% |  |
| RNA1{[moe](A)[sp].[moe](C)[sp].[moe](C)[sp].d(A)[sp].d(C)[sp].d(T)[sp].d(G)[sp].d(A)[sp].d(A)[sp].d(C)[sp].d(A)[sp].d(A)[sp].[moe](A)[sp].[moe](T)[sp].[moe](G)[sp].[moe](G)[sp].[moe](C)}$$$$V2.0 | 78% |  |
| RNA1{[moe](A)[sp].[moe](C)[sp].[moe](C)[sp].d(A)[sp].d(C)[sp].d(T)[sp].d(G)[sp].d(A)[sp].d(A)[sp].d(C)[sp].d(A)[sp].d(A)[sp].[moe](A)[sp].[moe](T)[sp].[moe](G)[sp].[moe](G)}$$$$V2.0 | 0% and 3% |  |
| RNA1{[moe](A)[sp].[moe](C)[sp].[moe](G)[sp].[moe](T)[sp].[moe](G)[sp].d(C)[sp].d(A)[sp].d(G)[sp].d(A)[sp].d(G)[sp].d(G)[sp].d(T)[sp].d(G)[sp].d(A)[sp].[moe](A)[sp].[moe](G)[sp].[moe](C)}$$$$V2.0 | 73% and 52% |  |
| RNA1{[moe](A)[sp].[moe](C)[sp].[moe](G)[sp].d(T)[sp].d(G)[sp].d(C)[sp].d(A)[sp].d(G)[sp].d(A)[sp].d(G)[sp].d(G)[sp].d(T)[sp].[moe](G)[sp].[moe](A)[sp].[moe](A)[sp].[moe](G)}$$$$V2.0 | 51% and 35% |  |
| RNA1{[moe](A)[sp].[moe](C)[sp].[moe](T)[sp].[moe](A)[sp].[moe](G)[sp].d(T)[sp].d(A)[sp].d(A)[sp].d(A)[sp].d(C)[sp].d(T)[sp].d(G)[sp].d(A)[sp].d(G)[sp].[moe](C)[sp].[moe](C)[sp].[moe](A)}$$$$V2.0 | 67% and 61% |  |
| RNA1{[moe](A)[sp].[moe](C)[sp].[moe](T)[sp].[moe](G)[sp].[moe](G)[sp].d(A)[sp].d(G)[sp].d(C)[sp].d(C)[sp].d(A)[sp].d(C)[sp].d(C)[sp].d(A)[sp].d(G)[sp].[moe](C)[sp].[moe](A)[sp].[moe](G)}$$$$V2.0 | 46% and 39% |  |
| RNA1{[moe](A)[sp].[moe](C)[sp].[moe](T)[sp].[moe](G)[sp].[moe](G)[sp].d(A)[sp].d(G)[sp].d(C)[sp].d(C)[sp].d(A)[sp].d(C)[sp].d(C)[sp].d(A)[sp].d(G)[sp].[moe](C)[sp].[moe](A)}$$$$V2.0 | 54% and 48% |  |

| Substance | target mRNA inhibition (HepG2, 0.07 µM) | also measured |
| --- | --- | --- |
| RNA1{[moe](A)[sp].[moe](C)[sp].d(G)[sp].d(G)[sp].d(G)[sp].d(C)[sp].d(A)[sp].d(A)[sp].d(C)[sp].d(A)[sp].d(T)[sp].[moe](A)[sp].[moe](C)[sp].[moe](C)[sp].[moe](T)[sp].[moe](T)[sp].[moe](G)}$$$$V2.0 | 46% |  |
| RNA1{[moe](A)[sp].[moe](C)[sp].d(T)[sp].d(A)[sp].d(G)[sp].d(T)[sp].d(A)[sp].d(A)[sp].d(A)[sp].d(C)[sp].d(T)[sp].[moe](G)[sp].[moe](A)[sp].[moe](G)[sp].[moe](C)[sp].[moe](C)[sp].[moe](A)}$$$$V2.0 | 61% |  |
| RNA1{[moe](A)[sp].[moe](C)[sp].d(T)[sp].d(A)[sp].d(G)[sp].d(T)[sp].d(A)[sp].d(A)[sp].d(A)[sp].d(C)[sp].d(T)[sp].[moe](G)[sp].[moe](A)[sp].[moe](G)[sp].[moe](C)[sp].[moe](C)}$$$$V2.0 | 57% and 47% |  |
| RNA1{[moe](A)[sp].[moe](C)[sp].d(T)[sp].d(G)[sp].d(G)[sp].d(A)[sp].d(G)[sp].d(C)[sp].d(C)[sp].d(A)[sp].d(C)[sp].[moe](C)[sp].[moe](A)[sp].[moe](G)[sp].[moe](C)[sp].[moe](A)[sp].[moe](G)}$$$$V2.0 | 70% and 61% |  |
| RNA1{[moe](A)[sp].[moe](G)[sp].[moe](A)[sp].[moe](A)[sp].[moe](G)[sp].[moe](T)[sp].d(C)[sp].d(C)[sp].d(A)[sp].d(C)[sp].d(C)[sp].d(A)[sp].d(C)[sp].d(G)[sp].d(A)[sp].[moe](G)[sp].[moe](T)}$$$$V2.0 | 39% and 30% |  |
| RNA1{[moe](A)[sp].[moe](G)[sp].[moe](A)[sp].[moe](A)[sp].[moe](G)[sp].d(T)[sp].d(C)[sp].d(C)[sp].d(A)[sp].d(C)[sp].d(C)[sp].d(A)[sp].d(C)[sp].d(G)[sp].[moe](A)[sp].[moe](G)[sp].[moe](T)}$$$$V2.0 | 11% and 0% |  |
| RNA1{[moe](A)[sp].[moe](G)[sp].[moe](A)[sp].[moe](A)[sp].d(G)[sp].d(T)[sp].d(C)[sp].d(C)[sp].d(A)[sp].d(C)[sp].d(C)[sp].d(A)[sp].d(C)[sp].[moe](G)[sp].[moe](A)[sp].[moe](G)[sp].[moe](T)}$$$$V2.0 | 32% and 20% |  |
| RNA1{[moe](A)[sp].[moe](G)[sp].[moe](A)[sp].[moe](G)[sp].[moe](A)[sp].d(A)[sp].d(G)[sp].d(T)[sp].d(C)[sp].d(C)[sp].d(A)[sp].d(C)[sp].d(C)[sp].d(A)[sp].[moe](C)[sp].[moe](G)[sp].[moe](A)}$$$$V2.0 | 28% and 27% |  |
| RNA1{[moe](A)[sp].[moe](G)[sp].[moe](A)[sp].[moe](G)[sp].[moe](G)[sp].d(T)[sp].d(G)[sp].d(A)[sp].d(A)[sp].d(G)[sp].d(C)[sp].d(G)[sp].d(A)[sp].d(A)[sp].[moe](G)[sp].[moe](T)}$$$$V2.0 | 55% and 52% |  |
| RNA1{[moe](A)[sp].[moe](G)[sp].[moe](A)[sp].[moe](T)[sp].[moe](G)[sp].d(A)[sp].d(G)[sp].d(G)[sp].d(C)[sp].d(A)[sp].d(T)[sp].d(A)[sp].d(G)[sp].d(C)[sp].[moe](A)[sp].[moe](G)[sp].[moe](C)}$$$$V2.0 | 41% and 34% |  |
| RNA1{[moe](A)[sp].[moe](G)[sp].[moe](A)[sp].d(G)[sp].d(G)[sp].d(T)[sp].d(G)[sp].d(A)[sp].d(A)[sp].d(G)[sp].d(C)[sp].d(G)[sp].[moe](A)[sp].[moe](A)[sp].[moe](G)[sp].[moe](T)}$$$$V2.0 | 51% and 44% |  |
| RNA1{[moe](A)[sp].[moe](G)[sp].[moe](C)[sp].d(G)[sp].d(A)[sp].d(A)[sp].d(G)[sp].d(T)[sp].d(G)[sp].d(C)[sp].d(A)[sp].d(C)[sp].[moe](A)[sp].[moe](C)[sp].[moe](G)[sp].[moe](G)}$$$$V2.0 | 79% and 70% | target mRNA inhibition (HepG2, 0.0092593 µM): 11%; target mRNA inhibition (HepG2, 0.0277778 µM): 34%; target mRNA inhibition (HepG2, 0.0833333 µM): 66%; target mRNA inhibition (HepG2, 0.25 µM): 87% |
| RNA1{[moe](A)[sp].[moe](G)[sp].[moe](G)[sp].[moe](A)[sp].[moe](G)[sp].d(T)[sp].d(T)[sp].d(C)[sp].d(C)[sp].d(G)[sp].d(C)[sp].d(A)[sp].d(G)[sp].d(T)[sp].[moe](A)[sp].[moe](T)}$$$$V2.0 | 62% and 48% |  |
| RNA1{[moe](A)[sp].[moe](G)[sp].[moe](G)[sp].[moe](C)[sp].[moe](A)[sp].d(T)[sp].d(A)[sp].d(G)[sp].d(C)[sp].d(A)[sp].d(G)[sp].d(C)[sp].d(A)[sp].d(G)[sp].[moe](G)[sp].[moe](A)[sp].[moe](T)}$$$$V2.0 | 61% and 56% |  |
| RNA1{[moe](A)[sp].[moe](G)[sp].[moe](G)[sp].[moe](C)[sp].[moe](A)[sp].d(T)[sp].d(A)[sp].d(G)[sp].d(C)[sp].d(A)[sp].d(G)[sp].d(C)[sp].d(A)[sp].d(G)[sp].[moe](G)[sp].[moe](A)}$$$$V2.0 | 66% and 56% | target mRNA inhibition (HepG2, 0.0092593 µM): 9%; target mRNA inhibition (HepG2, 0.0277778 µM): 13%; target mRNA inhibition (HepG2, 0.0833333 µM): 29%; target mRNA inhibition (HepG2, 0.25 µM): 51% |
